The source of these data is the METLIN SMRT retention time set (Domingo-Almenara et al. 2019).

The nature of the data set: gradient 5% acetonitrile 3 min, to 50% in 2 min, to 85% in 15 min, held 3 min, 100 µL/min. Particulars: column: Zorbax Extend-C18 2.1 x 50 mm; eluents: water / acetonitrile, 0.1% formic acid. The method, boiled down: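 The mobile phases were water and acetonitrile, each with 0.1% formic acid, pumped at 100 μL/min through a Zorbax Extend-C18 column (2.1 × 50 mm, 1.8 μm). Pure standards were injected as mixtures of ~100 molecules and detected by a quadrupole time-of-flight mass spectrometer in positive and negative ionization mode. Retention time came from computationally picked adduct peaks, each inspected by hand.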
On to `O=C(c1nnn(Cc2ccc(Cl)cc2)c1-n1cccc1)N1CCCC1`, for which the RP-LC retention time is 915 s.

With `CCCN1CCN(CCCNC(=O)c2noc3c2CCCCC3)CC1`, the RP-LC retention time was 594 s. Under `CCCNC(=O)CCNc1c(-c2ccc(F)cc2)nc2cnccn12` stands 648 s; under `c1ccc(-c2nc3nc4c(c(N5CCN(C6CCCCC6)CC5)n3n2)CCCC4)cc1`, 668 s. Turning to `CCn1nc2ccc(S(=O)(=O)N3CCCCC3)cn2c1=O`, the RP-LC retention time turned out to be 744 s. For the compound `Cc1cc(C)nc(Nc2nc(C(=O)O)cs2)n1`, the RP-LC retention time is 626 s.

Turning to `COc1ccc(CCN2CN=C(Nc3nc(C)c4cc(C)ccc4n3)NC2)cc1OC`, the RP-LC retention time was found to be 722 s. `COCCN1CCC(N2CCN(S(=O)(=O)c3cccc(Br)c3)CC2)C1=O` (stereo unspecified) showed an RP-LC retention time of 612 s. Regarding `Cc1csc(-c2cc(S(=O)(=O)NCC(C)c3ccccc3)c(C)s2)n1` (stereo unspecified), the RP-LC retention time was 1110 s. Under `COc1ccc(CNC(=O)Cn2cc(-c3nnc(C)o3)ccc2=O)cc1` stands 635 s; under `CCNC(=O)c1nc(C(=O)NCCc2ccc(Cl)cc2)cs1`, 842 s; under `O=C(COc1ccccc1)N1CCC(CNS(=O)(=O)c2ccc(Cl)s2)CC1`, 843 s. Compound `Cc1ccn(S(=O)(=O)c2ccc(C(C)(C)C)cc2)n1` displayed an RP-LC retention time of 983 s. As for `CCCS(=O)(=O)N1CCO[C@@H](COC)[C@@H]1c1ccccc1`, the RP-LC retention time turned out to be 850 s. To `Cc1oc(-c2ccc(C(=O)NCCCN3CCN(C)CC3)cc2)nc1CS(=O)c1ccccc1` (stereo unspecified) belongs 581 s. Turning to `Cc1ccccc1S(=O)(=O)N1CCC(N2CCN(Cc3ccccc3)C(=O)C2=O)CC1`, the RP-LC retention time worked out at 826 s. `CCCN(C)CC1(O)CCC2(CCN(C(=O)c3sccc3C)CC2)CC1` displayed an RP-LC retention time of 560 s.

Compound `Cc1nnsc1C(=O)N1CCC(CNC(=O)c2cc(-c3ccccc3)on2)CC1` showed an RP-LC retention time of 761 s. `CNC(=O)CCNc1c(-c2ccc(OC)cc2)nc2cnccn12` returned an RP-LC retention time of 588 s. As to `Cc1ncsc1CN1CC(Cn2c(C)cnc2-c2ccncc2)C1`, the RP-LC retention time came out at 818 s. The compound `Cc1cc(C)n(CCNC(=O)Cc2ccc(SC(C)C)cc2)n1` showed an RP-LC retention time of 755 s. To `CCn1c(=O)c2ccccc2n(Cc2nc(-c3cccc(Br)c3)no2)c1=O` belongs 1120 s; to `Cc1nnc2c(=O)n(CC(=O)NCc3ccc(F)cc3F)c3cccnc3n12`, 680 s; to `COc1ccc(S(=O)(=O)N2CCc3nc(-c4ccc(Cl)cc4)ncc3C2)cc1`, 1100 s. `Cc1cc(C)cc(OCc2nc(CCN(C)C(=O)COc3ccccc3)no2)c1` gave an RP-LC retention time of 1030 s.

The compound `Cn1cc(S(=O)(=O)N2CCCCC2)cc1C(=O)Nc1ccccc1` displayed an RP-LC retention time of 960 s. To `COCC(=O)N1CC(c2nnc(C(C)C)o2)C2(CCOCC2)C1` (stereo unspecified) belongs 577 s; to `N#CCSc1nnc2n(CCC(=O)NC3CCCCC3)c(=O)c3ccccc3n12`, 687 s; to `COc1ccc(NC(=O)Cn2c(C(C)C)nc3c(c2=O)CCN(Cc2ccccc2)C3)c(OC)c1`, 703 s. To `CCOC(=O)c1nc(Nc2ccc(F)cc2F)c2ccccc2n1` belongs 845 s; to `c1ccc(OCc2nc(-c3ccc4c(c3)nnn4CCN3CCCCC3)no2)cc1`, 698 s; to `CC(=O)Nc1ccc(S(=O)(=O)N2CCC(CN3CCC(C)CC3)CC2)cc1`, 608 s. `CCOC(=O)COc1cc(-c2ccc(C)cc2)nc2ccc(NC(=O)COc3ccccc3)cc12` registered an RP-LC retention time of 902 s.

Regarding `COC(=O)c1ccc2c(=O)n(-c3ccc(F)c(Cl)c3)c(N3CCN(c4ccccn4)CC3)nc2c1`, the RP-LC retention time is 762 s. `Cn1cccc1-c1noc(C2CCN(C(=O)c3ccoc3)C2)n1` (stereo unspecified): the RP-LC retention time turned out to be 784 s. `Cc1ccc(Nc2nc(C)cc(N3CCN(C(=O)Nc4cccc(C)c4)CC3)n2)cc1` had an RP-LC retention time of 717 s.

As for `CCOC(=O)c1cccc(Nc2c(C(=O)N3CCCCC3CC)cnc3nc(C)ccc23)c1` (stereo unspecified), the RP-LC retention time was 704 s. In turn, `Cc1nnc([C@@H]2CC(F)(F)CN2C(=O)COc2ccccc2)o1` yielded an RP-LC retention time of 667 s.

Take `COc1ccc(NC(=O)Cn2cccc2-c2nnc(-c3ccccc3)o2)c(OC)c1`: the RP-LC retention time stood at 993 s. Regarding `O=C(NCCc1ccccc1)Nc1cnc2c(c1)CCC2`, the RP-LC retention time worked out at 536 s. Under `O=C(Cc1cccs1)Nc1ccc2c(c1)CCC(=O)N2` stands 620 s. With `Cc1ccc(-c2noc(CSc3nccn3-c3ccccc3)n2)cc1`, the RP-LC retention time came out at 938 s.

On to `CCn1c(N2CCCC(C(=O)NCc3cccc(OC)c3)C2)cc(=O)n(C)c1=O` (stereo unspecified), for which the RP-LC retention time was found to be 764 s.

In the case of `CC(O)(CNC(=O)c1cnc2ccccc2n1)c1ccco1` (stereo unspecified), the RP-LC retention time stood at 675 s.

`C=CCNC(=O)c1nnn(Cc2ccc(Cl)cc2)c1-n1cccc1`: the RP-LC retention time amounted to 954 s.

Regarding `COc1ccc(CNC(=O)c2csc(-c3cn(C)c4ncccc34)n2)cc1`, the RP-LC retention time was found to be 867 s. In turn, `Cc1ccc(CN2CCN(CC(=O)Nc3cc(C)cc(C)c3)C(=O)C2=O)cc1` displayed an RP-LC retention time of 838 s. Consider `CCc1cccc(NC(=O)Cn2c(N)nc(COC)cc2=O)c1`, for which the RP-LC retention time turned out to be 650 s. The compound `COc1cccc(-n2cc(C(=O)OCc3ccncc3)c3ccccc3c2=O)c1` yielded an RP-LC retention time of 714 s. The compound `COc1ccccc1NC(=O)c1cnc(-c2ccccc2)nc1-c1ccncc1` returned an RP-LC retention time of 887 s.

As to `Cc1ncc2c(n1)C[C@@H]1CC[C@H]2N1C(=O)c1ccnn1C`, the RP-LC retention time turned out to be 584 s.

As for `Cc1cccc(S(=O)(=O)Nc2cccn3ncnc23)c1`, the RP-LC retention time amounted to 729 s. Turning to `CCOc1ccc(CNc2ccc3[nH]c(=O)[nH]c3c2)cc1`, the RP-LC retention time came out at 605 s.

Turning to `O=C(NCCN1CCN(C(=O)NC(c2ccccc2)c2ccccc2)CC1)c1ccsc1`, the RP-LC retention time turned out to be 605 s.

In turn, `Cn1cc(C2=CCN(S(=O)(=O)c3cccc(F)c3)CC2)c2cccnc21` displayed an RP-LC retention time of 969 s. In turn, `COc1cc(C(=O)Nc2ccc(-c3cn4ccc(C)nc4n3)cc2)cc(OC)c1OC` registered an RP-LC retention time of 634 s. The compound `CN(C)C(=O)c1csc(S(=O)(=O)N2CCC(C(=O)NC3CCCCC3)CC2)c1` registered an RP-LC retention time of 720 s. As to `CC(=O)N1CCCSc2ccc(S(=O)(=O)N3CCC(CN4CCc5ccccc5C4)CC3)cc21`, the RP-LC retention time worked out at 671 s. To `O=C(c1cnn2cccnc12)N1CCCC1c1cccc(F)c1` (stereo unspecified) belongs 754 s. Under `CC(C)c1ccc2nc3ccc(C(=O)NCCN(C)C)cn3c(=O)c2c1` stands 631 s.

In turn, `COc1ccc(S(=O)(=O)N2CCCC(C(=O)NCCC3=CCCCC3)C2)cc1Cl` (stereo unspecified) had an RP-LC retention time of 1070 s.
